The values below are quoted from earlier work in patent publication US9199026B2, “Modular extracorporeal systems and methods for treating blood-borne diseases” (SOMERSET GROUP ENTERPRISES, INC., priority 2011, dated 2015).

As a reminder, the pKa is the negative logarithm of the acid dissociation constant.

The test system of one data set is bacteria. To be noted: for Spectrum: first line of the cell pair 'Spectrum, activity'; for activity (bactericidal / static): second line of the cell pair 'Spectrum.
For data set [1] the following is noted: no group stated.
A further data set has as its system Listeria. The note with it: carbonation volume about 2, about 35° C., pressure up to about 350 MPa, about 300 seconds.
A further data set deals with pathogen. To be noted: pH 6.0 compared to pH 7.4.
For data set [2] the following is noted: at acidic pH.
Another data set deals with MRSA. To be noted: raised oxygen levels.
A further data set deals with S. aureus. To be noted: basic vs slightly acidic pH.

With `NCC[C@H](O)C(=O)N[C@@H]1C[C@H](N)[C@@H](O[C@H]2O[C@H](CN)[C@@H](O)[C@H](O)[C@H]2O)[C@H](O)[C@H]1O[C@H]1O[C@H](CO)[C@@H](O)[C@H](N)[C@H]1O` [Amikacin], in the data set with bacteria, the Spectrum entry is “Gram negative,” and the “activity (bactericidal / static)” value is recorded as “bactericidal”. Besides, in data set [1], the pKa is 12.7.

`O=C=O` [CO2, Carbon dioxide]: in the data set with Listeria, the “effect on inactivation of Listeria” value is listed as “enhanced the inactivation of Listeria”.

As for `N#Cc1c(N2C[C@@H]3NCCO[C@H]3C2)c(F)cc2c(=O)c(C(=O)O)cn(C3CC3)c12` [Finafloxacin, finafloxacin], the “increase in activity (lowering of the MIC)” value with pathogen is given as 4- to 8 fold.

As to `CN(C)c1cc(NC(=O)CNC(C)(C)C)c(O)c2c1C[C@H]1C[C@H]3[C@H](N(C)C)C(O)=C(C(N)=O)C(=O)[C@@]3(O)C(O)=C1C2=O` [Tigecycline], in the data set on bacteria, the Spectrum result was “Broad,” and the “activity (bactericidal / static)” value is “static”. In addition, in data set [1], the pKa is on record as 4.4.

On to `Nc1nc(-n2cc(C(=O)O)c(=O)c3cc(F)c(N4CC(O)C4)c(Cl)c32)c(F)cc1F` [delafloxacin], for which the “fraction under a neutral form” value in data set [2] was 50%.

As to `CN[C@H](CC(C)C)C(=O)N[C@H]1C(=O)N[C@@H](CC(N)=O)C(=O)N[C@H]2C(=O)N[C@H]3C(=O)N[C@H](C(=O)N[C@H](C(=O)O)c4cc(O)cc(O)c4-c4cc3ccc4O)[C@H](O)c3ccc(c(Cl)c3)Oc3cc2cc(c3O[C@@H]2O[C@H](CO)[C@@H](O)[C@H](O)[C@H]2O[C@H]2C[C@](C)(N)[C@H](O)[C@H](C)O2)Oc2ccc(cc2Cl)[C@H]1O` [vancomycin], the “effect of raising oxygen levels on resistance of MRSA” value in the data set with MRSA is reported as “decreases the resistance of MRSA to vancomycin”. In addition, the “killing S. aureus, basic versus slightly acidic conditions” value in the data set with S. aureus was “killing S. aureus under basic conditions better than under slightly acidic conditions”.

Consider Colistin, for which, in the data set on bacteria, the Spectrum entry was “Gram negative,” and the “activity (bactericidal / static)” value is given as “bactericidal”. In addition, the pKa in data set [1] is reported as 12.1.
